Assay results as given in patent publication US11840513B2, “Substituted nicotinimide inhibitors of BTK for treating cancer” (GUANGZHOU INNOCARE PHARMA TECH CO., LTD., priority 2013, dated 2023).

Target: SRC (Homo sapiens (Human), UniProt P12931)
Assay: kinase-tagged phage / affinity bead competition binding screen at 1000 nM (qPCR readout)
Details: 1000 nM screen

Chain of SRC (P12931 whole entry, looked up): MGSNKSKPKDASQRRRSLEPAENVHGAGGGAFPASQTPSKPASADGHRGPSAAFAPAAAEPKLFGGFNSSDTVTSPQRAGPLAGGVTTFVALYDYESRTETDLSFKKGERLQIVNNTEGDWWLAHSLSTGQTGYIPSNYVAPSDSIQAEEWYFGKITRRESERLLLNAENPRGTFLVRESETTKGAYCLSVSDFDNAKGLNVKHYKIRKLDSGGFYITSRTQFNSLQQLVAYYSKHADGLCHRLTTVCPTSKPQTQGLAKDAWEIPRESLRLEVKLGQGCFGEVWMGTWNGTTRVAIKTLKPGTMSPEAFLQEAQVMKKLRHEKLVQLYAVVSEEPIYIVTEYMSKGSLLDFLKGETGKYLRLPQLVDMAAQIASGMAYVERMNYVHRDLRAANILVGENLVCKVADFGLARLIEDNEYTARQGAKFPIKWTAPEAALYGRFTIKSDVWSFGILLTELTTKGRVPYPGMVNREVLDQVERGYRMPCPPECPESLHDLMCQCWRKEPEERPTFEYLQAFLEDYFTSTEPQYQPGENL

## C=CC(=O)N1CCN(c2ccc(C(N)=O)c(-c3ccc(Oc4ccccc4)cc3)n2)CC1 [Example 5, 6-(4-acryloylpiperazin-1-yl)-2-(4-phenoxyphenyl)nicotinamide]
  Fold Difference (BTK vs SRC): >100×
